1 compound from patent US7842324B2 (Senomyx, Inc., priority 2005, dated 2010) can be followed below.

The assay deals with Human Panelists. Nature of the assay: Line Scale sensory testing human taste test (Table C). Type of assay: in vivo. The conditions noted are these: 5 μM compound + 6% fructose/glucose, low sodium buffer pH 7.1. An excerpt: Purpose: To create a dose-response curve for perceived sweetness intensity of fructose-glucose concentrations. Test samples containing experimental compound are compared to this dose-response curve to determine equivalent sweetness intensity. This type of study requires a number of evaluations in order to obtain statistically significant data, so the test may be repeated with the same or additional panelists.
Overview: A group of eight or more panelists taste solutions including fructose-glucose at various concentrations, as well as the experimental compound, both with and without added fructose-glucose. Panelists rate sweetness intensity of all samples on an unstructured horizontal line scale, anchored from 0 to 10, where 0 equals no sweetness and 10 equals intense sweetness. Scores for sweetness intensity are averaged across panelists. Then using the average scores and/or equation of the line for the fructose-glucose dose-response curve, equivalent sweetness fructose-glucose concentrations are determined for the samples containing experimental compound.
Procedure: Eight or more subjects are used for the Line Scale tests. Subjects have been previously familiarized with the key attribute taste and are trained to use the 0 to 10 unstructured line scale. Subjects refrain from eating or drinking (except water) for at least 1 hour prior to the test. Subjects eat a cracker and rinse with water several times to clean the mouth.
Fructose-glucose solutions are provided at a wide range of concentrations, such as 0%, 2%, 4%, 6%, 8%, and 10% fructose-glucose, in order to create the dose-response curve. Samples containing experimental compound are prepared both alone and in a 6% fructose-glucose solution. All samples are made up in low sodium buffer pH 7.1. In order to aid dispersion, solutions can also be made up in 0.1% ethanol.
The solutions are dispensed in 20 ml volumes into 1 oz. sample cups and served to the subjects at room temperature. All samples are presented in randomized counterbalanced order to reduce response bias. Further, two sessions of testing may be used to check panel precision.
Subjects taste each sample individually and rate sweetness intensity on the line scale prior to tasting the next sample. All samples are expectorated. Subjects may retaste the samples but can only use the volume of sample given. Subjects must rinse with water between samples. Eating an unsalted cracker between sample pairs may be required depending on the samples tasted.
The scores for each sample are averaged across subjects and standard error is calculated. The dose-response curve is plotted graphically, and this may be used to ensure the panel is rating accurately; i.e. increasing the concentration of fructose-glucose should correspond to increased average scores for sweetness. A 2-way ANOVA (factors being samples and panelists) and multiple comparison tests (such as Tukey's Honestly Significant Difference test) can be used to determine differences among samples and/or panelists. A 3-way ANOVA, with sessions as the third factor, can be used to determine if there is any difference in the ratings between sessions.

Take `CC(C)CNC(=O)C(C)(C)c1ccc(-c2cncc(C#N)c2)cc1` [Compound 23, 2-(4-(5-cyanopyridin-3-yl)phenyl)-N-isobutyl-2-methylpropanamide]: the “Perceived Equivalent Sweet Solution” value was “Equal to 10% fructose/ % fructose/glucose”.
